Data as given in patent publication US20170283458A1, “COLLAGEN-BINDING SYNTHETIC PEPTIDOGLYCANS FOR WOUND HEALING” (Symic Biomedical, Inc., priority 2009, published 2017).
Ends that are not written are not given here.

What was measured:
Long-Evans rats [1] = assay: Rat incisional model, H&E histological scoring for inflammation; format: in vivo; conditions: low and high doses, all time points
Experimental: Using sterile techniques, longitudinal wounds were incised on shaved dorsal skin of the rats. A 4 cm incision was cut through the panniculus down to the skeletal musculature, and a 250 μL single dose of either 10 mg/mL hyaluronic acid (HA) or HA+DS-SILY was applied to the open wound by a syringe. DS-SILY was tested at 0.5, 1, and 2.5 mg/mL mixed with HA. The incision was then sutured closed and animals were returned to individual cages and monitored for complications. Negative control rats received no treatment and were treated identically. A pilot study was performed (n=3) at time points 3, 7, 10, 14, and 21 days, followed by a higher powered study (n=9) for 21 and 28 day time points. […]
H&E stained samples were examined for inflammation by a board certified pathologies blinded to the treatments following a scale adapted from Simhon et al. Trichrome stained samples were evaluated for scar tissue formation by an observer blinded to the treatments using a method established by Beausang et al. in which collagen orientation, density, and maturation are observed and compared to collagen of healthy tissue. A total of 12 tissue samples were analyzed for each study at each time point. Statistics were analyzed by ANOVA using Design Expert software (StatEase, Minneapolis, Minn.). […]

[2] = tested on: Human coronary artery smooth muscle cells (HCA SMC); assay: Gel compaction by smooth muscle cells in collagen gels; format: cell-based; conditions: Days 3 and 5
Experimental: Human coronary artery smooth muscle cells (HCA SMC) (Cascade Biologics) were cultured in growth medium (Medium 231 supplemented with smooth muscle growth factor). Cells from passage 3 were used for all experiments. Differentiation medium (Medium 231 supplemented with 1% FBS and 1× pen/strep) was used for all experiments unless otherwise noted.
Collagen gels were prepared with each additive as described with the exception that the 1×PBS example addition was omitted to accommodate the addition of cells in media. After incubating on ice for 30 min, HCA SMCs in differentiation medium were added to the gel solutions to a final concentration of 1×10^6 cells/mL. Gels were formed in quadruplicate in 48-well non-tissue culture treated plates (Costar) for 6 hrs before adding 500 μL/well differentiation medium. Gels were freed from the well edges after 24 hrs. Medium was changed every 2-3 days and images for compaction were taken at the same time points using a Gel Doc System (Bio-Rad). The cross-sectional area of circular gels correlating to degree of compaction was determined using ImageJ software (NIH). Gels containing no cells were used as a negative control and cells in collagen gels absent additive were used as a positive control. […] By day 10 all gels had compacted to approximately 10% of the original gel area, and differences between additives were small.

Long-Evans rats [3] = assay: Rat incisional model, tensile testing of scar (scar strength); format: in vivo
Experimental: Using sterile techniques, longitudinal wounds were incised on shaved dorsal skin of the rats. A 4 cm incision was cut through the panniculus down to the skeletal musculature, and a 250 μL single dose of either 10 mg/mL hyaluronic acid (HA) or HA+DS-SILY was applied to the open wound by a syringe. DS-SILY was tested at 0.5, 1, and 2.5 mg/mL mixed with HA. The incision was then sutured closed and animals were returned to individual cages and monitored for complications. Negative control rats received no treatment and were treated identically. A pilot study was performed (n=3) at time points 3, 7, 10, 14, and 21 days, followed by a higher powered study (n=9) for 21 and 28 day time points.
At a predetermined time after surgery (3-28 days) the animals were euthanized. Photographs of the incision were obtained, and the dermal wound including a 1 inch area around the wound edge was excised and cut into 4mm wide strips using a custom cutting device with fixed blades. Relevant tissues were harvested for tensile strength testing and histologic study.
Based on these findings, a full powered (n=9 rats/treatment) was performed using the later time points 21-day and 28-day, and comparing the same low dose, but modifying the high dose to 0.25 mg DS-SILY. DS-SILY was delivered with HA in each study and the negative control received no treatment.
Following necropsy, 4 mm skin strips (n=4 per animal) were placed in 1×PBS and kept at 4° C. for up to 6 hours. The wound breaking strength was measured at time points from 3 to 21 days. Skin samples were loaded onto a mechanical testing system (Test Resources, mode:100P/Q) such that the incision was orthogonal to the grips. Samples were loaded under tension with a rate of 5 mm/min to failure. […] No differences were observed between the low and high peptidoglycan concentrations.

HCA SMCs = assay: Measurement of elastin (Fastin assay) in cell-seeded collagen gels; format: cell-based, human; conditions: gels cultured for 10 days
Experimental: Collagen gels seeded with HCA SMCs were prepared as described in EXAMPLE 30. Differentiation medium was changed every three days and gels were cultured for 10 days. Collagen gels containing no cells were used as a control. Gels were rinsed in 1×PBS overnight to remove serum protein, and gels were tested for elastin content using the Fastin elastin assay per manufacturers protocol (Biocolor, County […].). Briefly, gels were solubilized in 0.25 M oxalic acid by incubating at 100° C. for 1 hr. Elastin was precipitated and samples were then centrifuged at 11,000×g for 10 min. The solubilized collagen supernatant was removed and the elastin pellet was stained by Fastin Dye Reagent for 90 min at room temperature. Samples were centrifuged at 11,000×g for 10 min and unbound dye in the supernatant was removed. Dye from the elastin pellets was released by the Fastin Dye Dissociation Reagent, and 100 μL samples were transferred to a 96-well plate (Costar). Absorbance was measured at 513 nm, and elastin content was calculated from an α-elastin standard curve.

Human dermal fibroblasts = assay: TGF-β1 production by human dermal fibroblasts (ELISA); format: cell-based; conditions: 1.4 μM treatment, 48 hours
Experimental: Human dermal fibroblasts (Cascade Biologics) were seeded onto 96-well tissue culture polystyrene plates at a seeding density of 1.83×10^3 cells/well. Cells adhered overnight and cell medium was aspirated. 100 μL/well of cell medium containing a final concentration of 1.4 μM treatment delivered from a concentrated solution of treatment in 1×PBS was added to the cells. After 48 hours, cell medium was removed and frozen at −80 C until further testing. TGF-β1 was measured by ELISA using a kit and protocol from R&D Systems.

collagen gels = target: T1, collagen gels (Bos taurus, UniProt P02453+P02465); assay: Cryo-SEM measurement of fibril density; format: biochemical; conditions: 10:1 molar ratio, cryo-SEM 10,000×
T1 construct: purchased Inamed, Freemont, Calif; Nutragen
T1 sequence (P02453 162-1217 limits assumed): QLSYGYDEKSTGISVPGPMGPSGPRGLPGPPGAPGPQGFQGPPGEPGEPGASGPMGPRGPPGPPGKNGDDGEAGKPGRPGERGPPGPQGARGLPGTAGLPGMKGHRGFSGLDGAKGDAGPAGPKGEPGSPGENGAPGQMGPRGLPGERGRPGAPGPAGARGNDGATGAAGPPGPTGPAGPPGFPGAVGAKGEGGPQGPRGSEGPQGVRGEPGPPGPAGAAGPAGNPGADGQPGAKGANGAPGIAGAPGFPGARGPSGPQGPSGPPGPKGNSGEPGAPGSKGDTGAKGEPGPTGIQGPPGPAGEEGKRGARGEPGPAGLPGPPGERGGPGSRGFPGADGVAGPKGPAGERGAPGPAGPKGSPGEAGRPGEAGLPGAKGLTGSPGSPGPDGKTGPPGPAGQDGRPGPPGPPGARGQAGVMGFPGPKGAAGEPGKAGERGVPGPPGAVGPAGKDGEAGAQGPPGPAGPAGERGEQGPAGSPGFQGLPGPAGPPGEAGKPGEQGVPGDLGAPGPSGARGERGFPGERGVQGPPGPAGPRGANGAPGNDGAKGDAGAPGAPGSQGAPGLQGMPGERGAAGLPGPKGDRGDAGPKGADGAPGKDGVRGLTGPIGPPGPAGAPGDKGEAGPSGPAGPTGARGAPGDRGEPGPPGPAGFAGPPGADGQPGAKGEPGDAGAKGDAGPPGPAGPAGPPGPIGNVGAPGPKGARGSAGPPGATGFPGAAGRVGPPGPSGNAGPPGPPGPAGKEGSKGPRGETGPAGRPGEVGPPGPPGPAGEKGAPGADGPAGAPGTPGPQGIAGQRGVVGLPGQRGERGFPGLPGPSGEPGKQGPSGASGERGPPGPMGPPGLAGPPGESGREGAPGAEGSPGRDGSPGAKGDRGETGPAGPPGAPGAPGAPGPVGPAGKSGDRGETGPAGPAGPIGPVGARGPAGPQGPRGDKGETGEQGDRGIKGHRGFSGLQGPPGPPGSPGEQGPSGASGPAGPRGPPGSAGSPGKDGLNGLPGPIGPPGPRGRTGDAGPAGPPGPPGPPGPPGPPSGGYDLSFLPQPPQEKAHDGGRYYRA
T1 sequence (P02465 80-1117 limits assumed): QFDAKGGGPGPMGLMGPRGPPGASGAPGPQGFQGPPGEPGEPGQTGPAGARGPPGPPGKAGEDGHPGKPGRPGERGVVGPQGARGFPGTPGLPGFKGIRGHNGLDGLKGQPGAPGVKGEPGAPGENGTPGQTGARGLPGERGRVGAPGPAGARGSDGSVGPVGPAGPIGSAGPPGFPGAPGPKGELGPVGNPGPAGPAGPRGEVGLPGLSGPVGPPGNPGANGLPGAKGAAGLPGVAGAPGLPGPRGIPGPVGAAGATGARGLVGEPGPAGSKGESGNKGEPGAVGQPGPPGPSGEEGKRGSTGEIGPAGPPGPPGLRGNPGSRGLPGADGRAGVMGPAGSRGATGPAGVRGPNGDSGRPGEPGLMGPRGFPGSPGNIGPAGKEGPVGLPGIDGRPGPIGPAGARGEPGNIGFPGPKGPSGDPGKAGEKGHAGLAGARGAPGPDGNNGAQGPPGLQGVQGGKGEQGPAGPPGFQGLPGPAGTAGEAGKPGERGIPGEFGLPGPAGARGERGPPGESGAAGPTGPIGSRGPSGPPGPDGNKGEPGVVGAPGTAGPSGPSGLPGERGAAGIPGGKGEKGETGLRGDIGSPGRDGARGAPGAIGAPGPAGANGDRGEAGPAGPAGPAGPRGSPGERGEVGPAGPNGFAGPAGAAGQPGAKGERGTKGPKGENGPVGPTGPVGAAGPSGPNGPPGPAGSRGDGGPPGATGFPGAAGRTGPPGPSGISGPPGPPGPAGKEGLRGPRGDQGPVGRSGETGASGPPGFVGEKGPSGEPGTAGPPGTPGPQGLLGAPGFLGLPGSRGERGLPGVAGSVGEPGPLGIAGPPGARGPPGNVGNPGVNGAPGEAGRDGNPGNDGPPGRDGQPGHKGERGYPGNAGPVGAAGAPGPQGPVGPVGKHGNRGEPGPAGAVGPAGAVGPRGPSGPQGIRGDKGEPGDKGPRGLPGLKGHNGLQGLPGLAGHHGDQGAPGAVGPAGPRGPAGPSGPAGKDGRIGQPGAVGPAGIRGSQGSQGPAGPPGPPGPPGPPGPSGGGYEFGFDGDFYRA
Experimental: Collagen gels were formed in the presence of each additive at a 10:1 molar ratio, as described in EXAMPLE 16, directly on the SEM stage, processed, and imaged as described. Images at 10,000× were analyzed for fibril density calculations. Images were converted to 8-bit black and white, and threshold values for each image were determined using ImageJ software (NIH). The threshold was defined as the value where all visible fibrils are white, and all void space is black. The ratio of white to black area was calculated using MatLab software. All measurements were taken in triplicate and thresholds were determined by an observer blinded to the treatment.

Which “inflammatory response (histological scoring)” value (Long-Evans rats [1]) does the source give for “DS-SILY: collagen-binding peptidoglycan in which a single SILY peptide was conjugated to dermatan sulfate via PDPH (RRANAALKAGELYKSILYGC; also: single peptide conjugated to dermatan sulfate via PDPH, site not given here)” here?
Its value is “does not cause an adverse immune response”.

What about the “inflammatory response (histological scoring)” value (Long-Evans rats [1]; listed as peptidoglycan) of the same substance?
The value was “did not have any adverse inflammatory effect”.

What about the “gel compaction at early time points” value [2] of the same substance?
The value was “significantly compacted more than gels made of collagen alone or collagen with dermatan sulfate”.

What about the wound breaking strength (Long-Evans rats [3]; 21 days post-injury, vs untreated or HA treated wounds) of the same substance?
The wound breaking strength was “significant increase in wound breaking strength when compared to untreated or HA treated wounds”.

What about the scar strength (Long-Evans rats [3]; full powered study, 0.125 mg and 0.25 mg with HA, 21-days) of the same substance?
The scar strength was “increased scar strength over no treatment”.

What about the scar strength (Long-Evans rats [3]; full powered study, 0.125 mg and 0.25 mg with HA, 28-days) of the same substance?
The scar strength was “significantly higher compared to the HA control, but was not different from no treatment”.

And the scar strength (Long-Evans rats [3]; pilot study, low (0.125 mg) and high (0.625 mg) dose delivered with HA, 21-days)?
The scar strength was “significantly increases scar strength”.

What about the elastin production (HCA SMCs) of the same substance?
The elastin production was “significantly increased elastin production over all samples”.

And the “TGF-β1 in cell medium” value (Human dermal fibroblasts)?
Its value is “significantly decreased TGF-β1”.

What about the “fibril density (ratio of fibril containing area to void space)” value (collagen gels) of the same substance?
Its value is “significantly greater fibril density”.
